Where a SMILES comes first, the peptide text is derived from it.
How the values were obtained:
[1] = system: DENV strain New Guinea-2; format: cell-based, dengue virus
[2] = system: WNV strain Egypt 101; format: cell-based, West Nile virus; conditions: 100 μg/ml, compared to the original peptide

CC[C@H](C)[C@H](NC(=O)[C@H](C)NC(=O)CNC(=O)[C@H](Cc1ccccc1)NC(=O)[C@@H](NC(=O)[C@H](CCC(N)=O)NC(=O)[C@H](Cc1c[nH]cn1)NC(=O)[C@H](CC(C)C)NC(=O)[C@H](C)NC(=O)[C@H](CCCCN)NC(=O)CNC(=O)[C@@H](NC(=O)[C@H](CO)NC(=O)[C@@H](NC(=O)[C@H](Cc1ccccc1)NC(=O)[C@@H](NC(=O)CNC(=O)CNC(=O)[C@H](CC(C)C)NC(=O)[C@H](CO)NC(=O)CNC(=O)[C@H](Cc1ccccc1)NC(=O)[C@H](CC(=O)O)NC(=O)[C@H](Cc1c[nH]c2ccccc12)NC(=O)[C@H](C)NC(=O)[C@@H](NC(=O)[C@H](CC(=O)O)NC(=O)CNC(=O)[C@H](CC(C)C)NC(=O)[C@@H](NC(=O)[C@H](C)NC(=O)[C@@H](N)CCSC)[C@@H](C)CC)[C@@H](C)O)C(C)C)[C@@H](C)O)[C@@H](C)CC)C(C)C)C(=O)N[C@@H](Cc1ccc(O)cc1)C(=O)O [DN59] (H-MAILGDTAWDFGSLGGVFTSIGKALHQVFGAIY-OH)
maximum inhibitory activity against DENV ([1]; at 20 μM, dose-response, mean +/- SD, triplicate): 100.0 +/- 0.5%

VATWHLDWSREFPLFLMNS [Scrambled WN83]
inhibitory effect of scrambled peptide against WNV [2]: no inhibitory activity

YFIDTSGAIWGASHLTGVLFDFMGIQGGAVLAK [Scrambled DN59]
inhibitory effect of scrambled peptide against DENV ([1]; 100 μg/ml, compared to the original peptide): no inhibitory activity

Source: publication PMC1177995 (Virology Journal, 2005)
